# In patent US20230131899A1, “INHIBITORS OF MICROBIALLY INDUCED AMYLOID” (Axial Therapeutics, Inc., priority 2020, published 2023):
# pIC50: −log10 of the molar value. Where two headings read alike, the source gives them in different places.
# Test system: CsgA gene expression (csgBAC promoter-GFP reporter) in E. coli UTI89
# Assay: In vitro live cell fluorescent reporter assay of CsgA transcription (Reporter Assay)
# Format: cell-based
# Conditions: Escherichia coli; for IC50: read-out: Reporter Assay Abs IC50 (μM), median Abs IC50 in the CsgA reporter assay, N/A = maximum expression reduction is <50% of control
# Method: In vitro live cell fluorescent reporter assay to determine effects of compounds on CsgA transcription. To assess the impact of compounds on CsgA gene expression, a live cell assay was performed using an engineered strain of E. coli UTI89 with a fluorescent CsgA gene expression reporter driven by the csgBAC promoter. In the reporter strain, a gene encoding Green Fluorescent Protein (GFP) was placed immediately downstream of the full intergenic region between csgDEF and csgBAC, containing the csgBAC promoter and other transcriptional regulatory elements, and inserted in single copy into the E. coli UTI89 chromosome, as described in Cegelski et. al., “Small-molecule inhibitors target Escherichia coli amyloid biogenesis and biofilm formation,” Nat. Chem. Bio., 25 Oct. 2009. With this construct, GFP expression in the reporter strain was under the same regulation as CsgA expression. The reporter strain was struck out on a YESCA agar plate (1 g/L yeast extract, 10 g/L casamino acids, 20 g/L Bacto Agar) and grown at about 27° C. for 2 days, or until single colonies were sufficiently large to pick. A single colony of the reporter strain was used to inoculate 5 mL of YESCA broth (1 g/L yeast extract, 10 g/L casamino acids), which was grown overnight at about 27° C. The inoculum was diluted 1:10 in YESCA broth and the optical density at 600 nm (OD600) was measured on a SpectraMax M2 or M5e (Molecular Devices, San Jose, Calif.) spectrophotometer in cuvettes. The culture was then further diluted to achieve a final OD600 of 0.003, which was confirmed by measurement of the OD600. Compounds were diluted in dimethyl sulfoxide (DMSO) and plated on black clear-bottomed tissue culture-treated 96-well plates with 1.5 μL/well for final test concentrations from 0.14-100 μM. All assay wells, including vehicle controls and positive controls for inhibition, included 1% DMSO final. Vehicle control wells consisted of DMSO and the reporter strain to assess the expression of the reporter strain in the assay in the absence of any compound. […] 148.5 μL culture at OD600 0.003 in YESCA broth was added to all wells for 150 μL final volume. Plates were incubated at 27° C. for 20 hours, then GFP fluorescence signal for each well was read on a Spectramax M2 or M5e plate reader with excitation at 485 nm, emission at 525 nm, and a cutoff at 515 nm. OD600 for each well was also measured on the Spectramax M2 or M5e plate reader. […] Background fluorescence was subtracted from all wells, then fluorescence signal for each well was normalized to the mean of the vehicle control wells. Normalized dose response curves were plotted for each compound, and compound inhibition of CsgA transcription was determined by assessing the curve-fit IC50, bottom, top, span (top-bottom), and Hill slope using GraphPad Prism software version 8.1.1 (GraphPad Software, San Diego, Calif.). An additional metric used to evaluate compounds was the concentration at which the curve reached 50% of the expression level of the vehicle control. This was written as a custom analysis in GraphPad Prism according to the formula X[50], or the X value at which Y=50, ie, the compound concentration at which fluorescence of the reporter strain was calculated to reach 50% of the vehicle control fluorescence. Separately from the fluorescence data, OD600 values were normalized to the mean of the vehicle control wells, and dose response curves were plotted for each compound. OD600 reduction of greater than 10% indicated compounds had some toxicity or negative impact on bacterial growth. […]
# [1] = read-out: Reporter Assay Abs IC50, activity range, class symbol
# [2] = read-out: Reporter Assay Abs IC50 (activity range), median Abs IC50 in the CsgA reporter assay, class symbol
SMILES,IC50 [µM],pIC50 [1],pIC50 [2]
"O=C(O)C1CN(Cc2ccccc2)c2c(-c3cccc(C(F)(F)F)c3)c(CN3CCC[C@H](c4ccccc4)C3)c(Cl)c(=O)n21 (stereo partly drawn) [Compound 237, 1-benzyl-6-chloro-5-oxo-7-(((R)-3-phenylpiperidin-1-yl)methyl)-8-(3-(trifluoromethyl)phenyl)-1,2,3,5-tetrahydroimidazo[1,2-a]pyridine-3-carboxylic acid]",1.3,5.35 to 5.89,–
"O=C(O)c1c[nH]c2c(-c3cccc(C(F)(F)F)c3)c(Cc3cccc4ccccc34)cc(=O)n12 [Compound 110, 7-(naphthalen-1-ylmethyl)-5-oxo-8-(3-(trifluoromethyl)phenyl)-1,5-dihydroimidazo[1,2-a]pyridine-3-carboxylic acid]",13.7,–,< 5.00
"CC(C)(C)c1cccc(Cc2cc(=O)n3c(c2-c2cccc(C(F)(F)F)c2)N(Cc2ccccc2)CC3C(=O)O)c1 (stereo not shown) [Compound 226, 1-benzyl-7-(3-(tert-butyl)benzyl)-5-oxo-8-(3-(trifluoromethyl)phenyl)-1,2,3,5-tetrahydroimidazo[1,2-a] pyridine-3-carboxylic acid]",2.7,–,–
"O=C(O)C1CN(Cc2ccccc2)c2c(-c3cccc(C(F)(F)F)c3)c(Cc3cccc4ncccc34)cc(=O)n21 (stereo not shown) [Compound 222, 1-benzyl-5-oxo-7-(quinolin-5-ylmethyl)-8-(3-(trifluoromethyl)phenyl)-1,2,3,5-tetrahydroimidazo[1,2-a]pyridine-3-carboxylic acid]",31.8,< 5.00,–
"CN1CC(C(=O)O)n2c(c(-c3cccc(C(F)(F)F)c3)c(Cc3cccc4ccccc34)cc2=O)S1(=O)=O (racemic) [Compound 008, 2-methyl-8-(naphthalen-1-ylmethyl)-6-oxo-9-(3-(trifluoromethyl)phenyl)-3,4-dihydro-2H,6H-pyrido[1,2-e][1,2,5]thiadiazine-4-carboxylic acid 1,1-dioxide]",4.3,–,5.35 to 5.89
"COc1ccc(Cc2c(-c3cccc(C(F)(F)F)c3)c3n(c(=O)c2Cl)C(C(=O)O)CN3Cc2ccccc2)c2ccccc12 (stereo not shown) [Compound 219, 1-benzyl-6-chloro-7-((4-methoxynaphthalen-1-yl)methyl)-5-oxo-8-(3-(trifluoromethyl)phenyl)-1,2,3,5-tetrahydroimidazo[1,2-a]pyridine-3-carboxylic acid]",0.8,> 5.89,–
"O=C(O)C1CN(Cc2ccccc2)c2c(-c3cccc(C(F)(F)F)c3)c(CCc3ccccc3)cc(=O)n21 (stereo not shown) [Compound 236, 1-benzyl-5-oxo-7-phenethyl-8-(3-(trifluoromethyl)phenyl)-1,2,3,5-tetrahydroimidazo[1,2-a]pyridine-3-carboxylic acid]",1.7,5.35 to 5.89,–
"O=C(O)C1CN(Cc2ccccc2)c2c(-c3cccc(C(F)(F)F)c3)c(Cc3ccccc3)cc(=O)n21 (stereo not shown) [Compound 235, 1,7-dibenzyl-5-oxo-8-(3-(trifluoromethyl)phenyl)-1,2,3,5-tetrahydroimidazo[1,2-a]pyridine-3-carboxylic acid]",2.7,5.35 to 5.89,–
"O=C(O)C1CN(Cc2ccccc2)c2c(-c3cccc(C(F)(F)F)c3)c(CN3CCCc4ccccc43)cc(=O)n21 (stereo not shown) [Compound 228, 1-benzyl-7-((3,4-dihydroquinolin-1 (2H)-yl)methyl)-5-oxo-8-(3-(trifluoromethyl)phenyl)-1,2,3,5-tetrahydroimidazo[1,2-a]pyridine-3-carboxylic acid]",3.9,5.35 to 5.89,–
"O=C(O)C1CN(Cc2ccccc2)c2c(-c3cccc(C(F)(F)F)c3)c(Cc3cncc4ccccc34)cc(=O)n21 (stereo not shown) [Compound 221, 1-benzyl-7-(isoquinolin-4-ylmethyl)-5-oxo-8-(3-(trifluoromethyl)phenyl)-1,2,3,5-tetrahydroimidazo[1,2-a]pyridine-3-carboxylic acid]",6.7,5.00 to 5.34,–
"O=C(O)C1CN(Cc2ccccc2)c2c(-c3cccc(C(F)(F)F)c3)c(CN3CCC[C@@H](c4ccccc4)C3)cc(=O)n21 (stereo partly drawn) [Compound 231, 1-benzyl-5-oxo-7-(((S)-3-phenylpiperidin-1-yl)methyl)-8-(3-(trifluoromethyl)phenyl)-1,2,3,5-tetrahydroimidazo[1,2-a]pyridine-3-carboxylic acid]",3.4,5.35 to 5.89,–
"COc1ccc(Cc2cc(=O)n3c(c2-c2cccc(C(F)(F)F)c2)N(Cc2ccccc2)CC3C(=O)O)c2ccccc12 (stereo not shown) [Compound 220, 1-benzyl-7-((4-methoxynaphthalen-1-yl)methyl)-5-oxo-8-(3-(trifluoromethyl)phenyl)-1,2,3,5-tetrahydroimidazo[1,2-a]pyridine-3-carboxylic acid]",1.2,> 5.89,–
"O=C(O)C1CN(Cc2ccccc2)c2c(-c3cccc(C(F)(F)F)c3)c(CCc3ccccc3)c(Cl)c(=O)n21 (stereo not shown) [Compound 240, 1-benzyl-6-chloro-5-oxo-7-phenethyl-8-(3-(trifluoromethyl)phenyl)-1,2,3,5-tetrahydroimidazo[1,2-a]pyridine-3-carboxylic acid]",1.4,5.35 to 5.89,–
"O=C(O)C1CN(Cc2ccccc2)c2c(-c3cccc(C(F)(F)F)c3)c(Cc3cccc4cccnc34)cc(=O)n21 (stereo not shown) [Compound 224, 1-benzyl-5-oxo-7-(quinolin-8-ylmethyl)-8-(3-(trifluoromethyl)phenyl)-1,2,3,5-tetrahydroimidazo[1,2-a]pyridine-3-carboxylic acid]",9.7,5.00 to 5.34,–
"CC(C)(C)c1ccc(Cc2cc(=O)n3c(c2-c2cccc(C(F)(F)F)c2)N(Cc2ccccc2)CC3C(=O)O)cc1 (stereo not shown) [Compound 227, 1-benzyl-7-(4-(tert-butyl)benzyl)-5-oxo-8-(3-(trifluoromethyl)phenyl)-1,2,3,5-tetrahydroimidazo[1,2-a] pyridine-3-carboxylic acid]",1.8,5.35 to 5.89,–
"O=C(O)C1CN(Cc2ccccc2)c2c(-c3cccc(C(F)(F)F)c3)c(Cc3cccc4cnccc34)cc(=O)n21 (stereo not shown) [Compound 223, 1-benzyl-7-(isoquinolin-5-ylmethyl)-5-oxo-8-(3-(trifluoromethyl)phenyl)-1,2,3,5-tetrahydroimidazo[1,2-a] pyridine-3-carboxylate]",21.7,< 5.00,–
"CCCCN1CC(C(=O)O)n2c(c(-c3cccc(C(F)(F)F)c3)c(Cc3cccc4ccccc34)cc2=O)S1(=O)=O (racemic) [Compound 021, 2-butyl-8-(naphthalen-1-ylmethyl)-6-oxo-9-(3-(trifluoromethyl)phenyl)-3,4-dihydro-2H,6H-pyrido[1,2-e][1,2,5]thiadiazine-4-carboxylic acid 1,1-dioxide]",2.6,–,5.35 to 5.89
"O=C(O)C1CN(Cc2ccccc2)c2c(-c3cccc(C(F)(F)F)c3)c(CN3CCC[C@@H](c4ccccc4)C3)c(Cl)c(=O)n21 (stereo partly drawn) [Compound 230, 1-benzyl-6-chloro-5-oxo-7-(((S)-3-phenylpiperidin-1-yl)methyl)-8-(3-(trifluoromethyl)phenyl)-1,2,3,5-tetrahydroimidazo[1,2-a]pyridine-3-carboxylic acid]",1.2,> 5.89,–
"O=C(O)C1CN(Cc2ccccc2)c2c(-c3cccc(C(F)(F)F)c3)c(Cc3ccc(Cl)c4ccccc34)c(Cl)c(=O)n21 (stereo not shown) [Compound 225, 1-benzyl-6-chloro-7-((4-chloronaphthalen-1-yl)methyl)-5-oxo-8-(3-(trifluoromethyl)phenyl)-1,2,3,5-tetrahydroimidazo[1,2-a]pyridine-3-carboxylic acid]",1.6,5.35 to 5.89,–
